From the CheMixHub ionic liquid set
Where “and” joins values, the source holds several entries; their conditions need not be identical. Equal entries are not always repeated.

Assay: xn = mol fraction of the nth substance listed

CC1COC(=O)O1 (centres undefined) + COCCn1cc[n+](C)c1.N#C[S-]
101 kPa, x2 = 0
Settings | viscosity [mPa·s]
288.15 K | 3.06
293.15 K | 2.75
298.15 K | 2.47
303.15 K | 2.25
308.15 K | 2.05
313.15 K | 1.88
318.15 K | 1.73
323.15 K | 1.6
328.15 K | 1.49
333.15 K | 1.39
338.15 K | 1.29
343.15 K | 1.21

CCCOCCO + COS(=O)(=O)[O-].Cn1cc[n+](C)c1
viscosity [mPa·s], 101 kPa
Settings | x2 = 0.00104 | x2 = 0.002597 | x2 = 0.004149 | x2 = 0.005696 | x2 = 0.007238 | x2 = 0.008775
293.15 K | 2.6 | 2.63 | 2.65 | 2.67 | 2.7 | 2.73
303.15 K | 2.15 | 2.18 | 2.21 | 2.24 | 2.27 | 2.29
313.15 K | 1.81 | 1.84 | 1.88 | 1.91 | 1.95 | 1.99

CCCC[n+]1ccn(C)c1.F[B-](F)(F)F + CS(C)=O
100 kPa
Settings | electrical conductivity, 298.15 K [S/m] | viscosity, 298.15 K | viscosity, 303.15 K [mPa·s] | viscosity, 308.15 K [mPa·s] | viscosity, 313.15 K [mPa·s]
x1 = 0.0192 | – | 3.4 mPa·s | 2.9 | 2.46 | 2.17
x1 = 0.0447 | – | 5.06 mPa·s | 4.12 | 3.28 | 2.8
x1 = 0.0661 | – | 6.29 mPa·s | 5.13 | 3.85 | 3.2
x1 = 0.0722 | 0.974 | 3.144 mPa·s | – | – | –
x1 = 0.0974 | – | 8.27 mPa·s | 6.5 | 4.89 | 4.03
x1 = 0.1622 | – | 12.79 mPa·s | 9.68 | 6.72 | 5.22
x1 = 0.1764 | – | 5.489 mPa·s | – | – | –
x1 = 0.2138 | – | 16.68 mPa·s | 12.57 | 8.83 | 6.86
x1 = 0.2145 | 1.016 | 6.836 mPa·s | – | – | –
x1 = 0.2889 | – | 22.73 mPa·s | 17.15 | 11.9 | 9.21
x1 = 0.3225 | 0.831 | 11.38 mPa·s | – | – | –
x1 = 0.3735 | – | 30.07 mPa·s | 22.87 | 15.97 | 12.58
x1 = 0.4189 | 0.672 | 17.2 mPa·s | – | – | –
x1 = 0.4431 | – | 36.58 mPa·s | 27.97 | 19.78 | 15.65
x1 = 0.5247 | – | 44.65 mPa·s | 34.44 | 24.63 | 19.75
x1 = 0.607 | 0.436 | 34 mPa·s | – | – | –
x1 = 0.6172 | – | 54.3 mPa·s | 42.3 | 30.73 | 24.85
x1 = 0.6557 | 0.352 | 38.87 mPa·s | – | – | –
x1 = 0.6772 | – | 61 mPa·s | 47.6 | 34.97 | 28.49
x1 = 0.7513 | – | 69.5 mPa·s | 54.7 | 40.59 | 33.35
x1 = 0.7958 | – | 75 mPa·s | 59.2 | 44.05 | 36.37
x1 = 0.8283 | 0.284 | – | – | – | –
x1 = 0.8516 | – | 81.9 mPa·s | – | 48.7 | 40.3
x1 = 0.8954 | – | 87.5 mPa·s | 69.6 | 52.5 | 43.72
x1 = 0.9155 | – | 82.7 mPa·s | – | – | –
x1 = 0.9373 | – | 92.9 mPa·s | 74.1 | 56.2 | 46.9
x1 = 0.9687 | – | 97.1 mPa·s | 77.5 | 59 | 49.4
x1 = 1 | 0.243 | 101 mPa·s and 104.7 mPa·s | 80.7 | 61.5 | 51.5

CCC[N+]1(C)CCCC1.O=S(=O)([N-]S(=O)(=O)C(F)(F)F)C(F)(F)F + CS(C)=O
electrical conductivity [S/m], 101 kPa, frequency 0.0005 MHz
Settings | 278.15 K | 288.15 K | 298.15 K | 308.15 K | 318.15 K | 328.15 K | 338.15 K | 348.15 K | 358.15 K
x1 = 0.05995 | – | 0.967 | 1.18 | 1.4 | 1.62 | 1.85 | 2.08 | 2.31 | 2.54
x1 = 0.1606 | 0.953 | 1.21 | 1.5 | 1.79 | 2.01 | 2.39 | 2.76 | 3.05 | 3.39
x1 = 0.3647 | 0.66 | 0.879 | 1.09 | 1.37 | 1.65 | 1.9 | 2.12 | 2.41 | 2.75

viscosity [mPa·s], 101 kPa
Settings | 278.15 K | 288.15 K | 298.15 K | 308.15 K | 318.15 K | 328.15 K | 338.15 K | 348.15 K | 358.15 K
x1 = 0.05995 | – | 3.56 | 2.86 | 2.367 | 1.965 | 1.682 | 1.446 | 1.27 | 1.126
x1 = 0.1606 | 7.89 | 5.88 | 4.56 | 3.66 | 2.99 | 2.51 | 2.138 | 1.847 | 1.623
x1 = 0.3647 | 20.1 | 13.94 | 10.18 | 7.75 | 6.1 | 4.93 | 4.08 | 3.44 | 2.95
x1 = 1 | 163.6 | 96.2 | 60.6 | 40.8 | 28.9 | 21.3 | 16.29 | 12.82 | 10.34

O + C[C@@H](O)[C@H](N)C(=O)O + CCCCCCCCCCCCCCCC[n+]1ccccc1.[Cl-]
Settings | electrical conductivity [S/m]
308.15 K, 101 kPa, x2 = 0, x3 = 0 | 6.7e-05

O + C[C@H](N)C(=O)O + CCCCCCCCCCCCCCCC[n+]1ccccc1.[Cl-]
Settings | electrical conductivity [S/m]
308.15 K, 101 kPa, x2 = 0, x3 = 0 | 6.7e-05
